Test results: patent US20160045486A1, “DOPAMINE RECEPTOR LIGANDS WITH ENHANCED DURATION OF ACTION” (priority 2008, published 2016)
Where a name gives a salt, the structure may show the parent alone. Read-outs that look alike come from different tables or passages of the source.

What was measured:
[1] = target: T1, Cloned human receptors D4 (CHO) (Homo sapiens, UniProt P21917); assay: biochemical
T1 sequence (P21917 1-419): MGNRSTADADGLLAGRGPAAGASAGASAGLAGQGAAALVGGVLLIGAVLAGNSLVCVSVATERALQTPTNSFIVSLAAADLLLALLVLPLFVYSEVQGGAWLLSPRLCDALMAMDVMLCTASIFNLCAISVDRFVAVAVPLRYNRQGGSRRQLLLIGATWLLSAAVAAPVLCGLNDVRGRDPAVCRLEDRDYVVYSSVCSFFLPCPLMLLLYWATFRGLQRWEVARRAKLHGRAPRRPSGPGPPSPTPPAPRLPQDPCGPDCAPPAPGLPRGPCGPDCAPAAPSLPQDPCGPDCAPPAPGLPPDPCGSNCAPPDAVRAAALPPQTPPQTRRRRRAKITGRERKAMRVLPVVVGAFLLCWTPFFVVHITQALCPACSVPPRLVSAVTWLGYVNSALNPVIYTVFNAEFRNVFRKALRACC
Procedure: (§1) Binding data from each assay were analyzed separately. Data were normalized by expressing the average dpm at each competitor concentration as a percentage of total binding.

[2] = target: T2, Cloned human receptors D3 (CHO) (Homo sapiens, UniProt P35462); assay: Binding affinity, cloned human D3 receptor (CHO)
T2 construct: expressed in transfected cells; host or cells: CHO cells
Procedure: as §1

[3] = target: T3, cloned hD1 receptors expressed in Ltk cells (Homo sapiens, UniProt P21728); assay: Dopamine D1 agonist activity, activation of adenylate cyclase; type: cell-based; details: FIG. 2, compared to dihydrexidine
T3 construct: expressed in transfected cells; host or cells: Ltk cells
Procedure: Studies were done in cloned hD1 receptors expressed in Ltk cells.
Frozen membranes were thawed and added to assay tubes (10 μg protein/tube) containing a prepared reaction mixture [100 mM Hepes, (pH 7.4), 100 mM NaCl, 4 mM MgCl2, 2 mM EDTA, 500 μM isobutyl methylxanthine (IBMX), 0.01% ascorbic acid, 10 μM pargyline, 2 mM ATP, 5 μM GTP, 20 mM phosphocreatine, 5 units of creatine phosphokinase (CPK), 1 μM propranolol] and selected drugs. The final reaction volume was 100 μL.
Basal cAMP activity was determined by incubation of tissue in the reaction mixture with no drug added. Tubes were assayed in duplicate and, after a 15 min incubation at 30° C., the reaction was stopped by the addition of 500 μL of 0.1 N HCl. Tubes were vortexed briefly, and then spun in a BHG HermLe Z 230 M microcentrifuge for five min at 15,000×g to precipitate particulates.
The concentration of cAMP in each sample was determined with an RIA of acetylated cAMP, modified from that previously described. Iodination of cAMP was performed using a now-published procedure (Brown et al., 2009). […] Antibody-bound radioactivity was separated by the addition of 25 μL of BioMag rabbit, anti-goat IgG (Advanced Magnetics, Cambridge Mass.), followed by vortexing and incubation at 4° C. for 1 h. […] Supernatants were aspirated and radioactivity in the pellet was determined using an LKB Wallac gamma counter (Gaithersburg, Md.). […]

[4] = target: Cloned human receptors D5 (HEK) (Homo sapiens, UniProt P21918); assay: biochemical
Procedure: as §1

[5] = target: T4, Cloned human receptors D2L (C-6) (Homo sapiens, UniProt P14416); assay: Binding affinity, cloned human D2L receptor (C-6)
T4 construct: expressed in transfected cells; host or cells: C-6 cells
Procedure: as §1

[6] = target: T5, Cloned human receptors D1 (C-6); assay: Binding affinity, cloned human D1 receptor (C-6)
T5 construct: C-6 glioma cells expressing the rhesus macaque D1 A receptor, (C-6-m D1 A)
Procedure: Cells were maintained in a humidified incubator at 37° C. with 5% CO2.

[7] = system: non-dopamine receptors (monoamine transporters, serotonin, adrenergic, hH1, muscarinic, opioid, miscellaneous receptors); assay: Affinity at other receptors (10 μM screen of non-dopamine receptors and transporters); details: 10 μM concentration; full dose-response only where >50% inhibition of binding
[8] = system: unilateral 6-OHDA rat model; assay: Rotation in the unilateral 6-OHDA rat model of Parkinson's disease; type: in vivo
Procedure: Both drugs were administered 1 mg/kg subcutaneously (SC), and the number of rotations measured (i.e., rotations counter clockwise) over time (minutes) using the model first described by
Ungerstedt (Ungerstedt and Arbuthnott, 1970).
In some studies, adult male Sprague Dawley rats (200-250 g) were obtained from Charles River Breeding Laboratories (Raleigh, N.C.) or Harlan Laboratories (Indianapolis, Ind.). Rats were killed by decapitation, and the whole brains removed and chilled briefly in ice-cold saline. Brains were sliced with the aid of a dissecting block, and central striata were then dissected from two coronal sections containing the majority of this region. Tissue was frozen immediately on dry ice and stored at −70° C. until the day of the assay. In other studies, Sprague-Dawley rats weighing between ca. 175 g received unilateral injections of 6-OHDA. They were pretreated with 25 mg/kg desipramine, anesthetized with sodium pentobarbital and placed in a stereotaxic apparatus. Thirty gauge needles were lowered into the right aspects of the substantia nigra at Interaural zero +3.2 mm; lateral −2.0 mm; and dorsoventral −7.7 mm. Four μl of 0.1% ascorbic acid in sterile saline containing 8 μg of 6-OHDA were infused in each side over a period of 20 minutes using 10 μl Hamilton syringes and a Sage syringe pump. The needles were left in place two minutes after infusion to minimize withdrawal of the 6-OHDA solution with the needles. The small burr holes in the skull were plugged with bone wax, and the wound sutured. Post-operative care of these rats included observation, sweet food supplements, and gastric intubation during the aphagic period following lesion. Fourteen or more days after the lesion, rats were challenged with 1 mg/kg apomorphine, and rotations measured. […] The rats were then allowed to “wash-out” for a week between drug trials.

T2 sequence (P35462 whole entry): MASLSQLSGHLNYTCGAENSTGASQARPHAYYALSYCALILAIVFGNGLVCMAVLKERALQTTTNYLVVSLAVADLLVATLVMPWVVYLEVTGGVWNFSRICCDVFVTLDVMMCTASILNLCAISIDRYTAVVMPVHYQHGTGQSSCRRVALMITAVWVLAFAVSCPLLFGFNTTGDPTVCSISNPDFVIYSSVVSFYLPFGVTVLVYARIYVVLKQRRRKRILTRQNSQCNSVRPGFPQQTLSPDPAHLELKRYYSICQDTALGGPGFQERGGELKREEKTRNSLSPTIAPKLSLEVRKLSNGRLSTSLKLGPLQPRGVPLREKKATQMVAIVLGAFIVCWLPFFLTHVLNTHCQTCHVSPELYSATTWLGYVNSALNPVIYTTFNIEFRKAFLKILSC
Sequence of Cloned human receptors D5 (HEK) (P21918 whole entry): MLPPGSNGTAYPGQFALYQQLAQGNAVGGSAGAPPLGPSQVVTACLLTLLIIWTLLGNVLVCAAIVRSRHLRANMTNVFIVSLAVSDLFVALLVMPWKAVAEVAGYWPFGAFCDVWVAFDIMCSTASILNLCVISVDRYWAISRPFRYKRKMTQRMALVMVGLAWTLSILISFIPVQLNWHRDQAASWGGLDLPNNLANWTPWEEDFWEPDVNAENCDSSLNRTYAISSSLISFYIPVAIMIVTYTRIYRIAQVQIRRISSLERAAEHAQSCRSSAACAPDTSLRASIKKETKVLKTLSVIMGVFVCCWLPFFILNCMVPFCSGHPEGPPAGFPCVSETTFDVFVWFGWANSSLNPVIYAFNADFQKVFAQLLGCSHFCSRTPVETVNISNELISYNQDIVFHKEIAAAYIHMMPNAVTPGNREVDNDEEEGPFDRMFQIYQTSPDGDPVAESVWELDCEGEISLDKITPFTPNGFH
T3 sequence (P21728 whole entry): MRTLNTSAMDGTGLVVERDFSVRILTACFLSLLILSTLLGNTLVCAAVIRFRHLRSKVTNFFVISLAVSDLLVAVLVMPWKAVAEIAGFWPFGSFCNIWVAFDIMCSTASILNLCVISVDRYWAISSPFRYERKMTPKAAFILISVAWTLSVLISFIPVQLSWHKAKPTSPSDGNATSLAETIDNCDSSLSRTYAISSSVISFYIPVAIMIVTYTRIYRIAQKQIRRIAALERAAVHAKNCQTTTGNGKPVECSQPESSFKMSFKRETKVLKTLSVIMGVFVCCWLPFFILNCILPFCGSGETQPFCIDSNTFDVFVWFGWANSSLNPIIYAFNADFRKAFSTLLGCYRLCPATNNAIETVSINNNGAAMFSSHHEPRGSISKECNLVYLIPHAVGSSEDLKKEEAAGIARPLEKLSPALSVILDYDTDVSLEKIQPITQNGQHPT
T4 sequence (P14416 whole entry): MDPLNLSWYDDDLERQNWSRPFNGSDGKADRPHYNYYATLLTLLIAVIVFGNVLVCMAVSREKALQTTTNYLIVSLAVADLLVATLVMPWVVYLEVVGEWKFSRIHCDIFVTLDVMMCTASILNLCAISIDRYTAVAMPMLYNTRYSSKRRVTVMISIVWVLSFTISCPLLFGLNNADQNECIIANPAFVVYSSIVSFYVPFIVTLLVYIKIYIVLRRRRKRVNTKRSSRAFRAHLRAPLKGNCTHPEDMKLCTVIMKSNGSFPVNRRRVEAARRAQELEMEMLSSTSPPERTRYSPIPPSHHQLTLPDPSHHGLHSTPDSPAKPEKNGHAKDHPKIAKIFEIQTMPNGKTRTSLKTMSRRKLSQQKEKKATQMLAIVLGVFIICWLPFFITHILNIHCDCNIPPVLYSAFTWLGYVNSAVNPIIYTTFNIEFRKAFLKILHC

Compound	Ki [1] [µM]	Ki [2] [µM]	agonist intrinsic activity and potency (adenylate cyclase, percentage of activation caused by 100 μM dopamine) [3]	Ki [4] [µM]	Ki [5] [µM]	Ki ([6]; read-out: K0.5, Cloned human receptors D1 (C-6); C-6 cells) [µM]	affinity for non-dopamine receptors [7]	agonist effects in presence of D1 antagonist SCH23390 ([8]; SCH23390 0.3 mg/kg)	rotation in presence of D2 antagonist haloperidol ([8]; haloperidol 0.1 mg/kg)	duration of activity (rotations over time) ([8]; single subcutaneous injection of 1 mg/kg, FIG. 1)	Ki ([2]; CHO cells, read-out: K0.5, Cloned human receptors D3 (CHO)) [µM]	Ki ([6]; C-6 cells; read-out: K0.5, Cloned human receptors D1 (C-6)) [µM]
Cc1ccc2c(c1)[C@@H]1c3cc(O)c(O)cc3CC[C@H]1NC2 (racemic) [Compound 1, Trans-2-methyl-10,11-dihydroxy-5,6,6a,7,8,12b-hexahydrobenzo[a]phenanthridine hydrochloride]	0.325	0.095	full agonist of similar intrinsic activity and potency when compared to dihydrexidine	0.007	0.525	0.008	little affinity for most receptors	completely blocked	not blocked	activity lasting for nearly ten hours	–	–
Oc1cc2c(cc1O)[C@@H]1c3ccccc3CN[C@H]1CC2 (relative stereo) [dihydrexidine, trans-10,11-dihydroxy-5,6,6a,7,8,12b-hexahydrobenzo[a]phenanthridine, reference compound]	–	–	–	–	–	–	–	–	–	–	0.015	0.0022
